According to PMC7362394 (Bioorganic & medicinal chemistry letters, 2019):

Tests used:
[1] = target: T1, uPA (Homo sapiens, UniProt P00749)
[2] = target: T1, uPA; details: read-out: uPA Ki; value taken from earlier paper; cited from earlier work
[3] = tested on: Sprague Dawley rats; details: 25 mg/kg acetazolamide IV then 1.5 mg/kg compound IP, n = 8
[4] = tested on: panel of mammalian cell lines; details: concentrations up to 100 μM
[5] = target: T2, epithelial sodium channels (ENaCs) (Homo sapiens, UniProt P37088+P51168+P51170); details: compounds at 10 μM, n = 4
T2 sequence (P37088 1-669): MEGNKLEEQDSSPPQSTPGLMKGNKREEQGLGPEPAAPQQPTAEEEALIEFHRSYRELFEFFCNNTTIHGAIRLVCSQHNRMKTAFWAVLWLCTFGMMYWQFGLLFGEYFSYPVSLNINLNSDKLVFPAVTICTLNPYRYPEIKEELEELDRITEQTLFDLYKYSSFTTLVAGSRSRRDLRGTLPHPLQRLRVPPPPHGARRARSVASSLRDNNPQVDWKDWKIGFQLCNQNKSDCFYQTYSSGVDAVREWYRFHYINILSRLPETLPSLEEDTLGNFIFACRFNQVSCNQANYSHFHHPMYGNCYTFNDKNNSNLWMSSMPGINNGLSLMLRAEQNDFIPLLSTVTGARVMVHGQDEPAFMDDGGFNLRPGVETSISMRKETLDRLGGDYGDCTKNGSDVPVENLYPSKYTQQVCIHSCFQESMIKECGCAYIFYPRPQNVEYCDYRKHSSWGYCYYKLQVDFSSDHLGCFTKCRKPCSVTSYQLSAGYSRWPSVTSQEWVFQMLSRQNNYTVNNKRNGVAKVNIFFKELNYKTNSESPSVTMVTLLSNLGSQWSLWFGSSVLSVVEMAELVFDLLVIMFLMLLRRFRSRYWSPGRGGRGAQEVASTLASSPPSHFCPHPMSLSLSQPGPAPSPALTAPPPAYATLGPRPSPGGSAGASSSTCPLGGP
T2 sequence (P51168 1-640): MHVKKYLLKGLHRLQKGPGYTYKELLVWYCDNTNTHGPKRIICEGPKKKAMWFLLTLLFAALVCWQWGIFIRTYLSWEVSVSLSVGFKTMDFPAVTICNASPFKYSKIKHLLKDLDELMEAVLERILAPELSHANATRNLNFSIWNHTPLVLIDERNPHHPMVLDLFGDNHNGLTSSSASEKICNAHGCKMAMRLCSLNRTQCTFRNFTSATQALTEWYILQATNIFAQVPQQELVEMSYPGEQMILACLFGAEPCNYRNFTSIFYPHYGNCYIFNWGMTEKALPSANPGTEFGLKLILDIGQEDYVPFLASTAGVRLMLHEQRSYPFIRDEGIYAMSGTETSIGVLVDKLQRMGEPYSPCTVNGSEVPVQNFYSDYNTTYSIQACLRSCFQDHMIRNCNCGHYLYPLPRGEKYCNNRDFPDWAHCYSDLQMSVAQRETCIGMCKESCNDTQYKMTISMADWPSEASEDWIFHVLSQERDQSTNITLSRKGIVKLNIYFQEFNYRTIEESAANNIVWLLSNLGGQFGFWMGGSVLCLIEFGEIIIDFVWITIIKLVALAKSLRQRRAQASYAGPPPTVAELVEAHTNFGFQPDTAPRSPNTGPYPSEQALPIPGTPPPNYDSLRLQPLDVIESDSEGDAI
T2 sequence (P51170 1-649): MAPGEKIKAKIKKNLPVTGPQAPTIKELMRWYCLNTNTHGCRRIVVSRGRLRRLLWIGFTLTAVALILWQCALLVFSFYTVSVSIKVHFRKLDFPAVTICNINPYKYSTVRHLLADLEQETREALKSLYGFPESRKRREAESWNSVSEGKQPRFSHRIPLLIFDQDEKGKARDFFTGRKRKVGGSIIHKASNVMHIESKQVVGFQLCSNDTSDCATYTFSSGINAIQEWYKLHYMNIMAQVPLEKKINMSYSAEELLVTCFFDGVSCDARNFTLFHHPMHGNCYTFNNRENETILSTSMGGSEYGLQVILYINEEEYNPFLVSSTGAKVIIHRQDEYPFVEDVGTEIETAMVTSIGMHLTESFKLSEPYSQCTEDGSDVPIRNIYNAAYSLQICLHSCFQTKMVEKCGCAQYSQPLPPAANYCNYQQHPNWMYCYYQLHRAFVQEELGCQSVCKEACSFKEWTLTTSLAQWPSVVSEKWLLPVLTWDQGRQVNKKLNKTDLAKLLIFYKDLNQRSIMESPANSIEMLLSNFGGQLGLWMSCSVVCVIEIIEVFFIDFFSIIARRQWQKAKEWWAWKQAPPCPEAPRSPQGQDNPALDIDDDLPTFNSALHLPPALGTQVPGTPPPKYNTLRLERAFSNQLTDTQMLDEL

[6] = tested on: 85 serine hydrolases; details: 5 nM-33 μM

Row | Compound | uPA potency relative to amiloride (in words) [1] | fold increase in uPA activity relative to amiloride ([1]; from Ki values) | other results
1 | N=C(N)NC(=O)c1nc(-c2cc3cc(Br)ccc3o2)c(N)nc1N [Compound 19] |  |  | fold decrease in uPA activity relative to amiloride ([1]; from Ki values): 1.5 fold; fold loss of uPA activity relative to 15 ([1]; from Ki values): ~ 12 fold
2 | N=C(N)NC(=O)c1nc(-c2ccc3occc3c2)c(N)nc1N [Compound 23] |  |  | uPA potency relative to 15 (in words) [1]: only a small decrease in potency
3 | COc1ncc(-c2nc(C(=O)NC(=N)N)c(N)nc2N2CCCCCC2)c(OC)n1 [6-(2,4-dimethoxypyrimidin-5-yl)-5-(N,N-hexamethylene) amiloride] |  |  | Ki [2]: 42 nM
4 | COc1ncc(-c2nc(C(=O)NC(=N)N)c(N)nc2N)cn1 [Compound 7] |  |  | effect on Na+/K+ excretion / solute concentrations (in words) [3]: no significant effect; effect on diuresis (in words) [3]: no significant effect; cytotoxicity across the cell line panel (in words) [4]: much less toxic; ENaC activity (in words) [5]: Complete loss of ENaC activity; inhibition of serine hydrolases in EnPlex assay (in words) [6]: High uPA selectivity
5 | N=C(N)NC(=O)c1nc(-c2ccc(C(F)(F)F)cc2)c(N)nc1N [Compound 5] | did not improve potency |  | 
6 | COc1ncc(-c2nc(C(=O)NC(=N)N)c(N)nc2N)c(OC)n1 [Compound 8] | only a modest increase in activity |  | 
7 | COc1ccc(-c2nc(C(=O)NC(=N)N)c(N)nc2N)c(OC)n1 [Compound 9] |  | 2 fold | 

The next lines start with results.

Row | uPA potency relative to amiloride (in words) [1] | fold increase in uPA activity relative to amiloride ([1]; from Ki values) | Compound | other results
8 | did not improve potency |  | CSc1ccc(-c2nc(C(=O)NC(=N)N)c(N)nc2N)cc1 [Compound 4] | 
9 | slight increase |  | N=C(N)NC(=O)c1nc(-c2ccc3c(c2)CCO3)c(N)nc1N [Compound 24] | 
10 | did not improve potency |  | N=C(N)NC(=O)c1nc(-c2ccccc2)c(N)nc1N [Compound 3] | 
11 |  | 3.3 fold | N=C(N)NC(=O)c1nc(-c2ccco2)c(N)nc1N [Compound 11] | 
12 |  | 2 fold | N=C(N)NC(=O)c1nc(-c2cccs2)c(N)nc1N [Compound 10] | 
13 |  | 1.7 fold | N=C(N)NC(=O)c1nc(-c2cc3ccccc3s2)c(N)nc1N [Compound 14] | 
